Laboratory results taken from patent US20220317132A1, “USE OF ENDOTHELIN RECEPTOR INHIBITOR FOR INHIBITING EXOSOME SECRETION OR INHIBITING PD-L1 EXPRESSION” (KYUNGPOOK NATIONAL UNIVERSITY INDUSTRY-ACADEMIC COOPERATION …, priority 2019, published 2022).

Tested on: MDA-MB231 cells
Experiment: Cytotoxic effect (MTT analysis)
Settings: 24 hours, sulfisoxazole 100 μM, ambrisentan 1, 10, 100 μM, macitentan 100, 1000 nM, bosentan 10, 50 μM, FIG. 1
Description: MCF10A cells were cultured in Mammary epithelial cell growth medium (MEGM, Lonza) added with 5% fetal bovine serum, 1% antibiotics, 52 μg/ml bovine pituitary extract, 0.5 μg/ml hydrocortisone, 10 ng/ml EGF, and 5 μg/ml insulin. MDA-MB231 and MCF7 cells were cultured in Dulbecco's modified Eagle's medium (DMEM, Hyclone) added with 10% fetal bovine serum and 1% antibiotics.
MDA-MB231 cells were seeded at 1×10^5/well in a 24-well plate, and then cultured for 24 hours to allow time for cell stabilization. After culturing for 24 hours, the cells were treated with 100 μM of sulfisoxazole, 1, 10, and 100 μM of ambrisentan, 100 and 1000 nM of macitentan, and 10 and 50 μM of bosentan and cultured for 24 hours. Then, after treatment with MTT tetrazolium reagent, the cells were cultured for 4 hours. After 4 hours, reduced MTT formazan (3-(4,5-dimethylthiazol-2-yl)-2,5 diphenyl-tetrazolium bromide) was measured at 595 nm absorbance to confirm cell proliferation effects.

Structure (SMILES)	cytotoxicity (MTT, absorbance 595 nm)
Cc1noc(NS(=O)(=O)c2ccc(N)cc2)c1C [sulfisoxazole]	no cytotoxicity
COc1ccccc1Oc1c(NS(=O)(=O)c2ccc(C(C)(C)C)cc2)nc(-c2ncccn2)nc1OCCO [bosentan]	no cytotoxicity
